Like-named read-outs stand apart in the source and are kept apart here.
Legend:
[1] = target: T1, AChE1 activity of extracts of Culex pipiens larvae resistant to propoxur (G119S-mutated AChE) (Culex pipiens, UniProt Q86GC8, G247S); test: biochemical
T1 construct: from tissue; host or cells: whole larvae of propoxur-resistant Culex pipiens, Triton X100 homogenate supernatant
Method: (§1) The inhibitory properties of the compounds of the preceding table I are tested with regard to the AChE activity by either using a normal or G119S-mutated recombinant AChE or using extracts of larvae of mosquitoes which are sensitive (carrying normal AChE) or resistant (carrying G119S-mutated AChE) to organophosphorus compounds and carbamates.
(§2) The AChE activity is measured using the method described by Bourguet et al., Pest Biochem. Physiol., 1996, 55, 122-128, and which refers to the spectroscopic method described by Ellman G. L. et al. (Biochem. Pharmacol., 1961, 7, 88-95) using acetylthiocholine as substrate.
(§3) Larvae of Culex pipiens mosquitoes which are sensitive or resistant to propoxur are milled in 400 μl of 0.25M phosphate buffer comprising 1% Triton X100. The homogenates are centrifuged at 10 000 rpm for 3 minutes.
(§4) The effectiveness of the various compounds with regard to the resistant larvae, relative to the sensitive larvae, is estimated by the sensitive/resistant ratio.

[2] = tested on: AChE1 activity of extracts of Culex pipiens larvae resistant to propoxur (G119S-mutated AChE); test: biochemical; conditions: IC50 on larval extracts, sensitive relative to resistant
Method: as §1, §2, §3, §4

[3] = tested on: larvae of mosquitoes Culex pipiens sensitive to propoxur; test: Insecticidal activity: larval mortality, propoxur-sensitive larvae; format: in vivo; conditions: stage-4 larvae, mortality after 24 hours, log-Probit, read-out: LD50, Sensitive larvae
Method: (§5) The insecticidal activity of the compounds according to the invention denoted in table IV below is tested on larvae of mosquitoes Culex pipiens sensitive or resistant to the action of propoxur.
(§6) The larvae resistant or sensitive to propoxur are incubated in 24-well plates, at the rate of 15 stage-4 larvae per well, in 1 ml of tap water comprising different concentrations of compounds ranging from 0.31 to 50 μg/ml.
(§7) Larval mortality is measured after incubating for 24 hours. […] Cahiers ORSTOM, série Entomologie médicale et Parasitologie, 23(2), 117-121; Raymond, M., Prato, G. and Ratsira, D. (1993). PROBIT, CNRS-UMII, Licence L93019. Avenix, 34680 St. Georges d'Orques, France.), the homogeneity of the dose/response being tested. The effectiveness of the different compounds with regard to the resistant larvae, relative to the sensitive larvae, is estimated by the sensitive/resistant ratio.

[4] = target: T2, normal recombinant Culex pipiens AChE1 (Culex pipiens, UniProt Q86GC8); test: Inhibition of normal recombinant AChE1 (lysates of transfected Drosophile S2 cells, Ellman method); format: biochemical
T2 construct: made in house; host or cells: Drosophila S2 cells (crude lysate supernatant)
Method: as §1, §2
(§8) The inhibitory properties of the compounds according to the invention with regard to the activity of a G119S-mutated or normal recombinant Culex pipiens AChE1 are tested according to protocol described by Weill et al., Nature, 2003, 423, 136-137.
(§9) Each compound according to the invention is tested at different concentrations on lysates of Drosophile S2 cells transfected with an empty expression vector or an expression vector expressing normal or mutated AChE1. After expression, the cells are centrifuged for 15 minutes at 14 000 rpm and are subsequently lysed in a 0.25 M phosphate buffer comprising 1% Triton X100.
(§10) 100 μl of supernatant originating from the centrifuging of the cell lysates at 10 000 rpm for 3 minutes are incubated for 15 minutes with 10 μl of each compound according to the invention at various concentrations.
(§11) The effectiveness of the various compounds with regard to the mutated AChE activity, relative to that of the normal AChE, is estimated by the sensitive/insensitive ratio.

[5] = tested on: larvae of mosquitoes Culex pipiens resistant to propoxur; test: Insecticidal activity: larval mortality, propoxur-resistant larvae; format: in vivo; conditions: for LC50: Culex pipiens, stage-4 larvae, mortality after 24 hours, log-Probit, read-out: LD50, Resistant larvae; for Sensitive/resistant ratio: LD50 larval mortality, sensitive relative to resistant
Method: as §5, §6, §7

[6] = target: T3, AChE1 activity of extracts of Culex pipiens larvae sensitive to propoxur (normal AChE) (Culex pipiens, UniProt Q86GC8); test: Inhibition of AChE1 activity in extracts of propoxur-sensitive mosquito larvae; format: biochemical
T3 construct: from tissue; host or cells: whole larvae of propoxur-sensitive Culex pipiens, Triton X100 homogenate supernatant
Method: as §1, §2, §3, §4

[7] = target: T4, G119S-mutated recombinant Culex pipiens AChE1 (Culex pipiens, UniProt Q86GC8, G247S); test: biochemical
T4 construct: made in house; host or cells: Drosophila S2 cells (crude lysate supernatant)
Method: as §1, §2, §8, §9, §10, §11

[8] = tested on: G119S-mutated recombinant Culex pipiens AChE1; test: biochemical; conditions: IC50 normal AChE1 relative to mutated AChE1, recombinant
Method: as §1, §2, §8, §9, §10, §11

[9] = extracts of propoxur-sensitive larvae, 15 minutes incubation, read-out: IC50, Sensitive larvae

Row | Compound | IC50 [1] [µM] | Sensitive/resistant ratio [2] | LC50 [3] [µM] | IC50 [4] [µM] | LC50 [5] [µM] | Sensitive/resistant ratio [5] | IC50 [6, 9] [µM] | IC50 [7] [µM] | Sensitive/insensitive ratio [8] | IC50 [6] [µM]
1 | Cc1ccc(C=C2C(=O)NC(=O)N(c3ccc(Cl)cc3)C2=O)o1 [(6), 1-(4-chlorophenyl)-5-[(5-methyl-2-furyl)methylene]-2,4,6(1H,3H,5H)-pyrimidinetrione] | 27 | 12.0 | 762 | 70 | 192 | 4.0 | 330 | 43 | 1.63 | 
2 | COc1cccc(N2C(=O)NC(=O)C(=Cc3ccc(C)o3)C2=O)c1 [(12), 1-(3-methoxyphenyl)-5-[(5-methyl-2-furyl)methylene]-2,4,6(1H,3H,5H)-pyrimidinetrione] | 6 | 8.5 |  | 3.4 |  |  | 54 | 3.5 | 0.96 | 
3 | Cc1ccc(C=C2C(=O)NC(=O)N(c3ccc(F)cc3)C2=O)s1 [(16), 1-(4-fluorophenyl)-5-[(5-methyl-2-thienyl)methylene]-2,4,6(1H,3H,5H)-pyrimidinetrione] | 22 | 22.5 |  | 17.1 |  |  | 490 | 8.6 | 1.99 | 
4 | Cc1ccc(C=C2C(=O)N(C)C(=O)N(C)C2=O)o1 [(4), 1,3-dimethyl-5-[(5-methyl-2-furyl)methylene]-2,4,6(1H,3H,5H)-pyrimidinetrione] | 7.5 | 9.8 | 576 | 73 | 200 | 2.9 | 74.3 | 31 | 2.40 | 
5 | CN1C(=O)C(=Cc2ccco2)C(=O)N(C)C1=O [(10), 5-(2-furylmethylene)-1,3-dimethyl-2,4,6(1H,3H,5H)-pyrimidinetrione] |  |  |  | 1190 |  |  |  | 357 | 3.34 | 
6 | C=CCN1C(=O)C(=Cc2ccc(C)o2)C(=O)NC1=S [(8), 1-allyl-5-[(5-methyl-2-furyl)methylene]-2-thioxodihydro-4,6(1H,5H)-pyrimidinetrione] | 51 | 1.8 | 223 | 61 | 123 | 1.8 | 91.6 | 29 | 2.08 | 
7 | CNC(=O)Oc1ccccc1OC(C)C [Propoxur, propoxur, reference compound] | 31800 | 0.00015 | 1.7 | 9 | 2700 | 0.00063 |  | 6350 | 0.0014 | 4.9
8 | CCCCN1C(=O)NC(=O)C(=Cc2ccc(C)s2)C1=O [(20), 1-butyl-5-[(5-methyl-2-thienyl)methylene]-2,4,6(1H,3H,5H)-pyrimidinetrione] | 152 | 1.0 |  | 12.1 |  |  | 153 | 15.5 | 0.78 | 
9 | O=C1NC(=O)N(c2ccccc2)C(=O)C1=Cc1ccco1 [(9), 5-(2-furylmethylene)-1-phenyl-2,4,6(1H,3H,5H)-pyrimidinetrione] |  |  |  | 1390 |  |  |  | 737 | 1.89 | 
10 | Cc1ccc(N2C(=O)NC(=O)C(=Cc3ccc(C)o3)C2=O)cc1 [(11), 5-[(5-methyl-2-furyl)methylene]-1-(4-methylphenyl)-2,4,6(1H,3H,5H)-pyrimidinetrione] | 14 | 7.7 |  | 4.5 |  |  | 111 | 3.5 | 1.27 | 
11 | Cc1ccc(C=C2C(=O)NC(=O)N(c3ccc(Br)cc3)C2=O)s1 [(14), 1-(4-bromophenyl)-5-[(5-methyl-2-thienyl)methylene]-2,4,6(1H,3H,5H)-pyrimidinetrione] | 142 | 15.0 |  | 9.6 |  |  | 2120 | 11.1 | 0.87 | 
12 | CCc1ccc(N2C(=O)NC(=O)C(=Cc3ccc(C)o3)C2=O)cc1 [(19), 1-(4-ethylphenyl)-5-[(5-methyl-2-furyl)methylene]-2,4,6(1H,3H,5H)-pyrimidinetrione] | 19 | 16.7 |  | 1.9 |  |  | 312 | 3.4 | 0.58 | 
13 | COc1ccc(N2C(=O)NC(=O)C(=Cc3ccc(C)o3)C2=O)cc1 [(5), 1-(4-methoxyphenyl)-5-[(5-methyl-2-furyl)methylene]-2,4,6(1H,3H,5H)-pyrimidinetrione] | 81 | 7.3 | 300 | 30 | 206 | 1.5 | 592 | 22 | 1.36 | 
14 | Cc1ccc(C=C2C(=O)NC(=O)N(c3ccc(C(C)C)cc3)C2=O)o1 [(7), 1-(4-isopropylphenyl)-5-[(5-methyl-2-furyl)methylene]-2,4,6(1H,3H,5H)-pyrimidinetrione] | 21 | 6.1 |  | 128 |  |  | 132 | 72 | 1.78 | 
15 | Cc1ccc(C=C2C(=O)NC(=O)N(c3ccc(Cl)cc3)C2=O)s1 [(15), 1-(4-chlorophenyl)-5-[(5-methyl-2-thienyl)methylene]-2,4,6(1H,3H,5H)-pyrimidinetrione] | 177 | 6.9 |  | 8.7 |  |  | 1220 | 8.7 | 1.00 | 
16 | Cc1ccc(C=C2C(=O)NC(=O)N(Cc3ccco3)C2=O)o1 [(18), 1-(2-furylmethyl)-5-[(5-methyl-2-furyl)methylene]-2,4,6(1H,3H,5H)-pyrimidinetrione] | 37 | 7.1 |  | 10.1 |  |  | 260 | 4.8 | 2.10 | 
17 | CCOc1ccc(N2C(=O)NC(=O)C(=Cc3ccc(C)o3)C2=O)cc1 [(13), 1-(4-ethoxyphenyl)-5-[(5-methyl-2-furyl)methylene]-2,4,6(1H,3H,5H)-pyrimidinetrione] | 89 | 2.7 |  | 7.1 |  |  | 236 | 2.9 | 2.40 | 
18 | Cc1ccc(C=C2C(=O)NC(=O)N(c3ccc(C)c(C)c3)C2=O)o1 [(17), 1-(3,4-dimethylphenyl)-5-[(5-methyl-2-furyl)methylene]-2,4,6(1H,3H,5H)-pyrimidinetrione] | 35 | 12.2 |  | 15.7 |  |  | 424 | 8.5 | 1.85 | 

— patent publication US8309556B2, “Use of compounds derived from pyrimidinetrione as acetyl cholinesterase inhibitors, compositions containing said derivatives, and the uses thereof” (priority 2005, dated 2012)
